Like-named read-outs stand apart in the source and are kept apart here. One block for each molecule: values may come before it.
Assays:
HCV NS5B = molecular target: T1, HCV NS5B (Hepatitis C virus genotype 1b, UniProt Q9WMX2); assay: HCV NS5B RdRp enzyme assay; format: biochemical; settings: HCV NS5B RdRp genotype 1b
T1 construct: The protein was expressed with an 18 amino acid C-terminal truncation to enhance the solubility; made in house; host or cells: E. coli BL21(DE3)
Method: HCV NS5B RdRp cloning, expression, and purification. The cDNA encoding the NS5B protein of HCV, genotype 1b, was cloned into the pET21a expression vector. The protein was expressed with an 18 amino acid C-terminal truncation to enhance the solubility. The E. coli competent cell line BL21(DE3) was used for expression of the protein. Cultures were grown at 37° C. for ˜4 hours until the cultures reached an optical density of 2.0 at 600 nm. The cultures were cooled to 20° C. and induced with 1 mM IPTG. Fresh ampicillin was added to a final concentration of 50 μg/ml and the cells were grown overnight at 20° C.
Cell pellets (3L) were lysed for purification to yield 15-24 mgs of purified NS5B. The lysis buffer consisted of 20 mM Tris-HCl, pH 7.4, 500 mM NaCl, 0.5% triton X-100, 1 mM DTT, 1 mM EDTA, 20% glycerol, 0.5 mg/ml lysozyme, 10 mM MgCl2, 15 ug/ml deoxyribonuclease I, and Complete TM protease inhibitor tablets (Roche). After addition of the lysis buffer, frozen cell pellets were resuspended using a tissue homogenizer. To reduce the viscosity of the sample, aliquots of the lysate were sonicated on ice using a microtip attached to a Branson sonicator. The sonicated lysate was centrifuged at 100,000×g for 1 hr at 4° C. and filtered through a 0.2 μm filter unit (Corning).
The protein was purified using three sequential chromatography steps: Heparin sepharose CL-6B, polyU sepharose 4B, and Hitrap SP sepharose (Pharmacia). The chromatography buffers were identical to the lysis buffer but contained no lysozyme, deoxyribonuclease I, MgCl2 or protease inhibitor and the NaCl concentration of the buffer was adjusted according to the requirements for charging the protein onto the column. Each column was eluted with a NaCl gradient which varied in length from 5-50 column volumes depending on the column type. After the final chromatography step, the resulting purity of the enzyme is >90% based on SDS-PAGE analysis. The enzyme was aliquoted and stored at −80° C.
Standard HCV NS5B RdRp enzyme assay. HCV RdRp genotype 1b assays were run in a final volume of 60 μl in 96 well plates (Costar 3912). The assay buffer is composed of 20 mM Hepes, pH 7.5, 2.5 mM KCl, 2.5 mM MgCl2, 1 mM DTT, 1.6 U RNAse inhibitor (Promega N2515), 0.1 mg/ml BSA (Promega R3961), and 2% glycerol. All compounds were serially diluted (3-fold) in DMSO and diluted further in water such that the final concentration of DMSO in the assay was 2%. HCV RdRp genotype 1b enzyme was used at a final concentration of 28 nM. A polyA template was used at 6 nM, and a biotinylated oligo-dT12 primer was used at 180 nM final concentration. Template was obtained commercially (Amersham 27-4110). Biotinylated primer was prepared by Sigma Genosys. 3H-UTP was used at 0.6 μCi (0.29 μM total UTP). Reactions were initiated by the addition of enzyme, incubated at 30° C. for 60 min, and stopped by adding 25 μl of 50 mM EDTA containing SPA beads (4 μg/μl, Amersham RPNQ 0007). Plates were read on a Packard Top Count NXT after >1 hr incubation at room temperature.
Modified HCV NS5B RdRp enzyme assay. A modified enzyme assay was performed essentially as described for the standard enzyme assay except for the following: The biotinylated oligo dT12 primer was precaptured on streptavidin-coated SPA beads by mixing primer and beads in assay buffer and incubating at room temperature for one hour. Unbound primer was removed after centrifugation. The primer-bound beads were resuspended in 20 mM Hepes buffer, pH 7.5 and used in the assay at final concentrations of 20 nM primer and 0.67 μg/μl beads. Order of addition in the assay: enzyme (14 nM) was added to diluted compound followed by the addition of a mixture of template (0.2 nM), 3H-UTP (0.6 μCi, 0.29 μM), and primer-bound beads, to initiate the reaction; concentrations given are final. Reactions were allowed to proceed for 4 hours at 30° C.
IC50 values for compounds were determined using seven different [I]. […]

HCV replicon = HCV replicon FRET / luciferase assay (NeoLuc); format: cell-based, HCV genotype 1b; settings: Hepatitis C virus, HCV replicon cells
Description: FRET Assay Preparation. To perform the HCV FRET screening assay, 96-well cell culture plates were used. The FRET peptide (Anaspec, Inc.) (Taliani et al., Anal. Biochem. 1996, 240, 60-67) contains a fluorescence donor, EDANS, near one end of the peptide and an acceptor, DABCYL, near the other end. The fluorescence of the peptide is quenched by […] resonance energy transfer (RET) between the donor and the acceptor, but as the NS3 protease cleaves the peptide the products are released from RET quenching and the fluorescence of the donor becomes apparent. The assay reagent was made as follows: 5× cell Luciferase cell culture lysis reagent from Promega (#E153A) diluted to 1× with dH2O, NaCl added to 150 mM final, the FRET peptide diluted to 20 μM final from a 2 mM stock.
To prepare plates, HCV replicon cells, with or without a Renilla luciferase reporter gene, were trypsinized and placed into each well of a 96-well plate with titrated test compounds added in columns 3 through 12; columns 1 and 2 contained a control compound (HCV protease inhibitor), and the bottom row contained cells without compound. The plates were then placed in a CO2 incubator at 37° C.
Assays. Subsequent to addition of the test compounds described above (FRET Assay Preparation), at various times the plate was removed and Alamar blue solution (Trek Diagnostics, #00-100) was added per well as a measure of cellular toxicity. After reading in a Cytoflour 4000 instrument (PE Biosystems), plates were rinsed with PBS and then used for FRET assay by the addition of 30 ul of the FRET peptide assay reagent described above (FRET Assay Preparation) per well. The plate was then placed into the Cytoflour 4000 instrument which had been set to 340 excite/490 emission, automatic mode for 20 cycles and the plate read in a kinetic mode. Typically, the signal to noise using an endpoint analysis after the reads was at least three-fold. Alternatively, after Alamar blue reading, plates were rinsed with PBS, 50 ul of DMEM (high glucose) without phenol red was added and plates were then used for luciferase assay using the Promega Dual-Glo Luciferase Assay System,
Compound analysis was deteiniined by quantification of the relative HCV replicon inhibition and the relative cytotoxicity values. To calculate cytoxicity values, the average Alamar Blue fluorescence signals from the control wells were set as 100% non-toxic. The individual signals in each of the compound test wells were then divided by the average control signal and multiplied by 100% to determine […]. To calculate the HCV replicon inhibition values, an average background value was obtained from the two wells containing the highest amount of HCV protease inhibitor at the end of the assay period. These numbers were similar to those obtained from naïve Huh-7 cells.
The background numbers were then subtracted from the average signal obtained from the control wells and this number was used as 100% activity. The individual signals in each of the compound test wells were then divided by the averaged control values after background subtraction and multiplied by 100% to determine percent activity. EC50 values for a protease inhibitor titration were calculated as the concentration which caused a 50% reduction in FRET or luciferase activity. The two numbers generated for the compound plate, percent cytoxicity and percent activity were used to determine compounds of interest for further analysis.

[1] = genotype 1b, read-out: NeoLuc EC50, Table 1, genotype 1b

T1 sequence (Q9WMX2 2420-2992): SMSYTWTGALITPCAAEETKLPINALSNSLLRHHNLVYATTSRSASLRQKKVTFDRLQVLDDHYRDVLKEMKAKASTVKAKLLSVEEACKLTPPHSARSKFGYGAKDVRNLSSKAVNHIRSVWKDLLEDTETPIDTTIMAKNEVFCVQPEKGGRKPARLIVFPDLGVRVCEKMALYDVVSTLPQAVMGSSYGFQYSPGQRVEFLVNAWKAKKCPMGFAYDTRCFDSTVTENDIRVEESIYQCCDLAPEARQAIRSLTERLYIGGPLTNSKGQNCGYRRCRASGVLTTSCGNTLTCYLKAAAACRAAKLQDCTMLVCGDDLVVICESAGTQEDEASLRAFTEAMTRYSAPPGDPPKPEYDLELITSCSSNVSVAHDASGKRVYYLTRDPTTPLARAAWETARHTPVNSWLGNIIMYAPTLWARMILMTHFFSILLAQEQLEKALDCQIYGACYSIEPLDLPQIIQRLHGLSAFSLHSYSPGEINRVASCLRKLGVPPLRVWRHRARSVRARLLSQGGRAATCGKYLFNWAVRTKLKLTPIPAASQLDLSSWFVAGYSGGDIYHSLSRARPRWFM

Structure (SMILES): CNC(=O)N1CC23COCC2(C1)CN(C(=O)[C@]12C[C@H]1c1cc(OC)ccc1-c1c(C4CCCCC4)c4ccc(C(=O)NS(=O)(=O)C(C)C)cc4n1C2)C3 (stereo partly shown)
- IC50 (HCV NS5B; Table 1): 1.9 to 500 nM
- EC50 (HCV replicon; [1]): 1.9 to 500 nM

Structure (SMILES): COC[C@]12CNC[C@@]1(COC)CN(C(=O)C13CC1c1cc(OC)ccc1-c1c(C4CCCCC4)c4ccc(C(=O)NS(=O)(=O)C(C)C)cc4n1C3)C2 (stereo partly shown)
- EC50 (HCV replicon; [1]): 1.9 to 500 nM

Structure (SMILES): C=C(C)S(=O)(=O)NC(=O)c1ccc2c(C3CCCCC3)c3n(c2c1)C[C@@]1(C(=O)N2C[C@]4(COC)CN(C)C[C@]4(COC)C2)C[C@H]1c1cc(OC)ccc1-3
- IC50 (HCV NS5B; Table 1): < 20 nM
- EC50 (HCV replicon; [1]): 1.9 to 500 nM

Structure (SMILES): COc1ccc2c(c1)C1CC1(C(=O)N1CC34CN(C)CC3(CN(C)C4)C1)Cn1c-2c(C2CCCCC2)c2ccc(C(=O)NS(=O)(=O)C(C)C)cc21 (stereo not shown)
- IC50 (HCV NS5B; Table 1): < 2.3 nM
- EC50 (HCV replicon; [1]): 1.9 to 500 nM

Structure (SMILES): CNC(=O)N1CC23COCC2(C1)CN(C(=O)[C@]12C[C@H]1c1cc(OC)ccc1-c1c(C4CCCCC4)c4ccc(C(=O)NS(=O)(=O)N(C)C)cc4n1C2)C3 (stereo partly shown)
- IC50 (HCV NS5B; Table 1): 1.9 to 500 nM
- EC50 (HCV replicon; [1]): 1.9 to 500 nM

Structure (SMILES): COc1ccc2c(c1)C1CC1(C(=O)N1CC34COCC3(CN(C)C4)C1)Cn1c-2c(C2CCCCC2)c2ccc(C(=O)NS(=O)(=O)C(C)C)cc21 (stereo not shown)
- IC50 (HCV NS5B; Table 1): < 2.3 nM
- EC50 (HCV replicon; [1]): 1.9 to 500 nM

Structure (SMILES): CCN1CC23COCC2(C1)CN(C(=O)C12CC1c1cc(OC)ccc1-c1c(C4CCCCC4)c4ccc(C(=O)NS(=O)(=O)C(C)C)cc4n1C2)C3 (stereo not shown)
- IC50 (HCV NS5B; Table 1): 1.9 to 500 nM
- EC50 (HCV replicon; [1]): 1.9 to 500 nM

Structure (SMILES): COc1ccc2c(c1)C1CC1(C(=O)N1CC34CNCC3(COC4)C1)Cn1c-2c(C2CCCCC2)c2ccc(C(=O)NS(=O)(=O)C(C)C)cc21 (stereo not shown)
- IC50 (HCV NS5B; Table 1): 1.9 to 500 nM
- EC50 (HCV replicon; [1]): 1.9 to 500 nM

Structure (SMILES): C=C(/C=C1\C(=C)c2c(C3CCCCC3)c3ccc(C(=O)NS(=O)(=O)C(C)C)cc3n2CC2(C(=O)N3CC45CNCC4(CNC5)C3)CC12)OC (stereo not shown)
- IC50 (HCV NS5B; Table 1): < 2.3 nM
- EC50 (HCV replicon; [1]): > 1000 nM

Structure (SMILES): COc1ccc2c(c1)C1CC1(C(=O)N1CC34CNCC3(COC4)C1)Cn1c-2c(C2CCCCC2)c2ccc(C(=O)NS(=O)(=O)CC(C)C)cc21 (stereo not shown)
- IC50 (HCV NS5B; Table 1): 1.9 to 500 nM
- EC50 (HCV replicon; [1]): 1.9 to 500 nM

Structure (SMILES): COc1ccc2c(c1)[C@@H]1C[C@]1(C(=O)N1CC34COCC3(C1)CN(C1CC1)C4)Cn1c-2c(C2CCCCC2)c2ccc(C(=O)NS(=O)(=O)N(C)C)cc21 (stereo partly shown)
- IC50 (HCV NS5B; Table 1): 1.9 to 500 nM
- EC50 (HCV replicon; [1]): 1.9 to 500 nM

Structure (SMILES): CCOCCN1CC23COCC2(C1)CN(C(=O)[C@]12C[C@H]1c1cc(OC)ccc1-c1c(C4CCCCC4)c4ccc(C(=O)NS(=O)(=O)C(C)C)cc4n1C2)C3 (stereo partly shown) [drawing 112]
- IC50 (HCV NS5B; Table 2): 1.9 nM
- EC50 (HCV replicon; Table 2, read-out: NeoLuc EC50): 7.69 nM

- IC50 (HCV NS5B; Table 1): > 1000 nM
Structure (SMILES): COC(=O)N1CC23COCC2(C1)CN(C(=O)[C@]12C[C@H]1c1cc(OC)ccc1-c1c(C4CCCCC4)c4ccc(C(=O)NS(=O)(=O)N(C)C)cc4n1C2)C3 (stereo partly shown)

Structure (SMILES): CCOCCN1CC23COCC2(C1)CN(C(=O)[C@]12C[C@H]1c1cc(OC)ccc1-c1c(C4CCCCC4)c4ccc(C(=O)NS(=O)(=O)C(C)C)cc4n1C2)C3 (stereo partly shown) [drawing 101]
- IC50 (HCV NS5B; Table 1): 1.9 to 500 nM
- EC50 (HCV replicon; [1]): 1.9 to 500 nM

- IC50 (HCV NS5B; Table 1): 1.9 to 500 nM
Structure (SMILES): COC(=O)N1CC23COCC2(C1)CN(C(=O)[C@]12C[C@H]1c1cc(OC)ccc1-c1c(C4CCCCC4)c4ccc(C(=O)NS(=O)(=O)C(C)C)cc4n1C2)C3 (stereo partly shown)

Structure (SMILES): COc1ccc2c(c1)C1CC1(C(=O)N1CC34COCC3(CN(C)C4)C1)Cn1c-2c(C2CCCCC2)c2ccc(C(=O)NS(=O)(=O)CC(C)C)cc21 (stereo not shown)
- IC50 (HCV NS5B; Table 1): 1.9 to 500 nM
- EC50 (HCV replicon; [1]): 1.9 to 500 nM

Structure (SMILES): C=C(C)S(=O)(=O)NC(=O)c1ccc2c(C3CCCCC3)c3n(c2c1)C[C@@]1(C(=O)N2C[C@@]4(COC)CNC[C@@]4(COC)C2)C[C@H]1c1cc(OC)ccc1-3
- IC50 (HCV NS5B; Table 1): < 20 nM
- EC50 (HCV replicon; [1]): 500 to 1000 nM

Structure (SMILES): COC[C@@]12CN(C)C[C@]1(COC)CN(C(=O)C13CC1c1cc(OC)ccc1-c1c(C4CCCCC4)c4ccc(C(=O)NS(=O)(=O)C(C)C)cc4n1C3)C2 (stereo partly shown)
- IC50 (HCV NS5B; Table 1): 1.9 to 500 nM
- EC50 (HCV replicon; [1]): 1.9 to 500 nM

Structure (SMILES): COc1ccc2c(c1)[C@@H]1C[C@]1(C(=O)N1CC34CCC3(C1)CN(C1CC1)C4)Cn1c-2c(C2CCCCC2)c2ccc(C(=O)NS(=O)(=O)C(C)C)cc21 (stereo partly shown)
- IC50 (HCV NS5B; Table 1): 1.9 to 500 nM
- EC50 (HCV replicon; [1]): 1.9 to 500 nM

Structure (SMILES): C=C(C)S(=O)(=O)NC(=O)c1ccc2c(C3CCCCC3)c3n(c2c1)C[C@@]1(C(=O)N2CC45CNCC4(COC5)C2)C[C@H]1c1cc(OC)ccc1-3 (stereo partly shown)
- IC50 (HCV NS5B; Table 1): < 2.3 nM
- EC50 (HCV replicon; [1]): 1.9 to 500 nM
